The results in this text go back to ChEMBL document CHEMBL1135488, “Prediction of volume of distribution values in humans for neutral and basic drugs using physicochemical measurements and plasma protein binding data” (J Med Chem, 2002).

For data set [1] the following is noted: pH 7.4.
Description: Fraction ionized (pH 7.4)
A short description of data set [2]: in vitro.
A short description of data set [3]: clinical. The conditions noted are these: human, in vivo, iv.
Data set [4] can be described thus: in vitro. The conditions noted are these: human, plasma.

`O=C1Nc2ccc(Cl)cc2C(c2ccccc2Cl)=NC1O` (racemic) [LORAZEPAM]: the Fraction ionised in data set [1] is recorded as 0. In addition, the fraction unbound in data set [2] (tissues) was found to be 0.029. Besides, the Vd in data set [3] was determined as 1.3 L/kg.

`CCCC(=O)Nc1ccc(OCC(O)CNC(C)C)c(C(C)=O)c1` (stereo not drawn) [ACEBUTOLOL]: in data set [1], the Fraction ionised was 0.995. In addition, the unbound share (fraction unbound) in data set [2] (tissues) came to 0.273. The compound further had a Vd in data set [3] of 1.2 L/kg.

`Cc1nnc2n1-c1ccc(Cl)cc1C(c1ccccc1)=NC2` [ALPRAZOLAM] returned a Fraction ionised in data set [1] of 0. In data set [2] (tissues), this compound came in with a fraction unbound of 0.881. The distribution volume (Vd) in data set [3] came out at 0.72 L/kg.

`C=CCc1ccccc1OCC(O)CNC(C)C` (stereo not drawn) [ALPRENOLOL]: the unbound share (fraction unbound) in data set [4] was 0.24; in data set [2] (tissues) it was 0.028. Further, the Fraction ionised in data set [1] was 0.992. The Vd in data set [3] is 3.4 L/kg.

In data set [1], `CCCCc1oc2ccccc2c1C(=O)c1cc(I)c(OCCN(CC)CC)c(I)c1` [AMIODARONE] displayed a Fraction ionised of 0.955.

Take `CN1[C@@H]2CC[C@H]1C[C@@H](OC(=O)C(CO)c1ccccc1)C2` (stereo partly drawn) [ATROPINE]: in data set [1], the Fraction ionised is on record as 0.996.

`Cn1c(=O)c2c(ncn2C)n(C)c1=O` [CAFFEINE] showed a Fraction ionised in data set [1] of 0. The compound also came in with a fraction unbound in data set [2] (tissues) of 0.543. In data set [3], this compound yielded a Vd of 0.61 L/kg.

For `O=C(N[C@H](CO)[C@H](O)c1ccc([N+](=O)[O-])cc1)C(Cl)Cl` [CHLORAMPHENICOL], the fraction unbound in data set [4] was determined as 0.47; in data set [2] (tissues), 0.225. This compound came in with a Fraction ionised in data set [1] of 0. For the same compound, the Vd in data set [3] is 0.94 L/kg.

For the compound `CN(C)CCC(c1ccc(Cl)cc1)c1ccccn1` (stereo not drawn) [CHLORPHENIRAMINE], the fraction unbound was 0.3 in data set [4] and 0.037 in data set [2]. The same compound returned a Fraction ionised in data set [1] of 0.986. In addition, in data set [3], the Vd was 3.2 L/kg.

As to `CN(C)CCCN1c2ccccc2Sc2ccc(Cl)cc21` [CHLORPROMAZINE], the fraction unbound amounted to 0.03 in data set [4] and 0.001 in data set [2]. The same compound showed a Fraction ionised in data set [1] of 0.986. The compound also yielded a Vd in data set [3] of 21 L/kg.

In the case of `Clc1cccc(Cl)c1N=C1NCCN1` [CLONIDINE], the results for the fraction unbound in data set [4] and in data set [2] were 0.8 and 0.158, respectively. In data set [1], this compound gave a Fraction ionised of 0.817. The Vd in data set [3] was determined as 2.1 L/kg.

Compound `CN1CCN(C2=Nc3cc(Cl)ccc3Nc3ccccc32)CC1` [CLOZAPINE] came in with a Fraction ionised in data set [1] of 0.629. This compound came in with a fraction unbound in data set [2] of 0.004. For the same compound, the volume of distribution (Vd) in data set [3] amounted to 5.4 L/kg.

On to `COC(=O)[C@H]1[C@@H](OC(=O)c2ccccc2)C[C@@H]2CC[C@H]1N2C` [COCAINE], for which the figures for the free fraction (fraction unbound) in data set [4] and in data set [2] (tissues) were 0.09 and 0.018, respectively. Besides, in data set [1], the Fraction ionised was determined as 0.952. Also, the Vd in data set [3] came out at 2 L/kg.

In the case of `CNCCCN1c2ccccc2CCc2ccccc21` [DESIPRAMINE], the Fraction ionised in data set [1] is 0.999. This compound also registered an unbound share (fraction unbound) in data set [2] of 0.003. Besides, in data set [3], the distribution volume (Vd) worked out at 20 L/kg.

Regarding `C[C@@H]1C[C@H]2[C@@H]3CCC4=CC(=O)C=C[C@]4(C)[C@@]3(F)[C@@H](O)C[C@]2(C)[C@@]1(O)C(=O)CO` [DEXAMETHASONE], the Fraction ionised in data set [1] is given as 0. This compound also came in with an unbound share (fraction unbound) in data set [2] of 0.182.

As to `CN1C(=O)CN=C(c2ccccc2)c2cc(Cl)ccc21` [DIAZEPAM], the Fraction ionised in data set [1] worked out at 0.

`COc1ccc([C@@H]2Sc3ccccc3N(CCN(C)C)C(=O)[C@@H]2OC(C)=O)cc1` [DILTIAZEM] showed a Fraction ionised in data set [1] of 0.82. The compound also had a fraction unbound in data set [2] (tissues) of 0.028. The compound further came in with a distribution volume (Vd) in data set [3] of 3.1 L/kg.

The compound `CN(C)CCOC(c1ccccc1)c1ccccc1` [DIPHENHYDRAMINE] yielded a Fraction ionised in data set [1] of 0.98.

On to `C[C@]12CC[C@@H]3c4ccc(O)cc4CC[C@H]3[C@@H]1CC[C@@H]2O` [ESTRADIOL], for which the fraction unbound worked out at 0.015 in data set [4] and 0.005 in data set [2] (tissues). The compound also gave a Fraction ionised in data set [1] of 0. Besides, in data set [3], the Vd was 1.2 L/kg.

For the compound `O=C(NCC1CCCCN1)c1cc(OCC(F)(F)F)ccc1OCC(F)(F)F` (stereo not drawn) [FLECAINIDE], the fraction unbound in data set [4] turned out to be 0.39; in data set [2] (tissues), 0.031. The Fraction ionised in data set [1] is 0.988. Further, the Vd in data set [3] was found to be 4.9 L/kg.

`O=C(CCCN1CCC(O)(c2ccc(Cl)cc2)CC1)c1ccc(F)cc1` [HALOPERIDOL]: in data set [1], the Fraction ionised was 0.947. In addition, in data set [2], the fraction unbound worked out at 0.002. In data set [3], the distribution volume (Vd) is 18 L/kg.

`CN(C)CCCN1c2ccccc2CCc2ccccc21` [IMIPRAMINE] gave a Fraction ionised in data set [1] of 0.992. For the same compound, the unbound share (fraction unbound) in data set [2] (tissues) was found to be 0.002. Further, the Vd in data set [3] amounted to 18 L/kg.

`CCN(CC)CC(=O)Nc1c(C)cccc1C` [LIDOCAINE]: the Fraction ionised in data set [1] is 0.776.

As for `CN1C(=O)C(O)N=C(c2ccccc2Cl)c2cc(Cl)ccc21` (stereo not drawn) [LORMETAZEPAM], the Fraction ionised in data set [1] amounted to 0. The same compound showed a fraction unbound in data set [2] (tissues) of 0.007. In data set [3], the distribution volume (Vd) was 6.8 L/kg.

As to `CCN(CC)CCNC(=O)c1cc(Cl)c(N)cc1OC` [METOCLOPRAMIDE], the Fraction ionised in data set [1] stood at 0.988. In data set [2], this compound returned a fraction unbound of 0.07. In data set [3], the Vd amounted to 3.4 L/kg.

`COCCc1ccc(OCC(O)CNC(C)C)cc1` (stereo not drawn) [METOPROLOL]: the figures for the fraction unbound in data set [4] and in data set [2] were […] and 0.084, respectively. Moreover, the Fraction ionised in data set [1] amounted to 0.995. The same compound showed a Vd in data set [3] of 4.2 L/kg.

As to `Cc1cccc(C)c1OCC(C)N` (stereo not drawn) [MEXILETINE], the figures for the free fraction (fraction unbound) in data set [4] and in data set [2] were 0.37 and 0.03, respectively. The compound further gave a Fraction ionised in data set [1] of 0.981. Besides, in data set [3], the Vd worked out at 4.9 L/kg.

Take `CN1CC[C@]23c4c5ccc(O)c4O[C@H]2[C@@H](O)C=C[C@H]3[C@H]1C5` [MORPHINE]: the Fraction ionised in data set [1] was 0.858.

In data set [2], `COC(=O)C1=C(C)NC(C)=C(C(=O)OC)C1c1ccccc1[N+](=O)[O-]` [NIFEDIPINE] yielded a fraction unbound of 0.023. The compound further gave a Vd in data set [3] of 0.78 L/kg.

For `CC(=O)CCCCn1c(=O)c2c(ncn2C)n(C)c1=O` [PENTOXIFYLLINE], the results for the free fraction (fraction unbound) in data set [4] and in data set [2] (tissues) were 1 and 0.095, respectively. The compound also gave a Fraction ionised in data set [1] of 0. In addition, in data set [3], the volume of distribution (Vd) turned out to be 4.2 L/kg.

For the compound `C[C@]12C=CC(=O)C=C1CC[C@@H]1[C@@H]2[C@@H](O)C[C@@]2(C)[C@H]1CC[C@]2(O)C(=O)CO` [PREDNISOLONE], the fraction unbound in data set [4] is 0.075; in data set [2], 0.021. This compound also displayed a Fraction ionised in data set [1] of 0. In data set [3], the volume of distribution (Vd) is 1.5 L/kg.

In turn, `CCN(CC)CCNC(=O)c1ccc(N)cc1` [PROCAINAMIDE] registered a Fraction ionised in data set [1] of 0.986.

On to `CCCNCC(O)COc1ccccc1C(=O)CCc1ccccc1` (stereo not drawn) [PROPAFENONE], for which the Fraction ionised in data set [1] is given as 0.987.

`CC(C)NCC(O)COc1cccc2ccccc12` (stereo not drawn) [PROPRANOLOL] yielded a Fraction ionised in data set [1] of 0.991. In addition, the unbound share (fraction unbound) in data set [2] was found to be 0.012. Further, the Vd in data set [3] was determined as 4.3 L/kg.

In turn, `C=C[C@H]1C[N@@]2CC[C@H]1C[C@@H]2[C@@H](O)c1ccnc2ccc(OC)cc12` [QUINIDINE] gave a Fraction ionised in data set [1] of 0.817. The compound further came in with an unbound share (fraction unbound) in data set [2] (tissues) of 0.019.

On to `Cc1nc2n(c(=O)c1CCN1CCC(c3noc4cc(F)ccc34)CC1)CCCC2` [RISPERIDONE], for which the Fraction ionised in data set [1] is 0.764. This compound returned a fraction unbound in data set [2] of 0.042.

`CC(C)(C)NCC(O)c1cc(O)cc(O)c1` (stereo not drawn) [TERBUTALINE]: the Fraction ionised in data set [1] amounted to 0.952. Further, the fraction unbound in data set [2] (tissues) is 0.187. This compound registered a Vd in data set [3] of 1.8 L/kg.

A word on the fraction unbound: it is the share of the substance not bound to proteins or other matrix. Read a low fraction unbound as little free substance. In general, Vd refers to a proportionality between amount in the body and measured concentration, not a real space. A higher Vd goes with wide distribution into tissue.
